# Laboratory results reported in PubChem BioAssay AID1963986 (Molecular Pharmacology Branch, DTP, NCI, 2024).
# System: 171881-019-R-J1-PDC tumor spheroid viability
# Test: Anticancer human tumor 171881-019-R-J1-PDC patient-derived invasive breast carcinoma cell line growth inhibition [PI3K]
# Conditions: spheroids with HUVEC and MSC; for IC50: curve of first compound; for viability, T/C: stronger effect = lower value
# Method in brief: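 Three cell types, namely tumor cells, endothelial cells and mesenchymal stem cells, formed each spheroid. Combinations with four PI3K inhibitors were screened at clinically achievable concentrations decreasing by half-log, and spheroid viability was recorded.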
# [1] = second compound 0.00316 µM, first compound 0.0316 µM
# [2] = second compound 0.00316 µM, first compound 0.1 µM
# [3] = second compound 0.00316 µM, first compound 0.316 µM
# [4] = second compound 0.00316 µM, first compound 1 µM
# [5] = second compound 0.00316 µM, first compound 3.16 µM
# [6] = second compound 0.00316 µM, first compound 10 µM
# [7] = second compound 0.01 µM, first compound 0.0316 µM
# [8] = second compound 0.01 µM, first compound 0.1 µM
# [9] = second compound 0.01 µM, first compound 0.316 µM
# [10] = second compound 0.01 µM, first compound 1 µM
# [11] = second compound 0.01 µM, first compound 3.16 µM
# [12] = second compound 0.01 µM, first compound 10 µM
# [13] = second compound 0.0316 µM, first compound 0.0316 µM
# [14] = second compound 0.0316 µM, first compound 0.1 µM
# [15] = second compound 0.0316 µM, first compound 0.316 µM
# [16] = second compound 0.0316 µM, first compound 1 µM
# [17] = second compound 0.0316 µM, first compound 3.16 µM
# [18] = second compound 0.0316 µM, first compound 10 µM
# [19] = second compound 0.1 µM, first compound 0.0316 µM
# [20] = second compound 0.1 µM, first compound 0.1 µM
# [21] = second compound 0.1 µM, first compound 0.316 µM
# [22] = second compound 0.1 µM, first compound 1 µM
# [23] = second compound 0.1 µM, first compound 3.16 µM
# [24] = second compound 0.1 µM, first compound 10 µM
# [25] = second compound 0.316 µM, first compound 0.0316 µM
# [26] = second compound 0.316 µM, first compound 0.1 µM
# [27] = second compound 0.316 µM, first compound 0.316 µM
# [28] = second compound 0.316 µM, first compound 1 µM
# [29] = second compound 0.316 µM, first compound 3.16 µM
# [30] = second compound 0.316 µM, first compound 10 µM
# [31] = second compound 1 µM, first compound 0.0316 µM
# [32] = second compound 1 µM, first compound 0.1 µM
# [33] = second compound 1 µM, first compound 0.316 µM
# [34] = second compound 1 µM, first compound 1 µM
# [35] = second compound 1 µM, first compound 3.16 µM
# [36] = second compound 1 µM, first compound 10 µM
# 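Further: spheroids exposed to compound for 7 days before viability read.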
# 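Wherever viability, T/C is given: 100% = DMSO vehicle-treated spheroids.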
smiles,measurement,setting,value
CC(C)NCC(C(=O)N1CCN(c2ncnc3c2C(C)CC3O)CC1)c1ccc(Cl)cc1 (stereo unspecified) + CC(Nc1ccc2c(c1)OCCn1cc(N3C(=O)OCC3C(F)F)nc1-2)C(N)=O,IC50,second compound 0.00316 µM,304 nM
same,IC50,second compound 0.01 µM,275 nM
same,IC50,second compound 0.0316 µM,65.5 nM
same,IC50,second compound 0.1 µM,< 31.6 nM
same,IC50,second compound 0.316 µM,< 31.6 nM
same,IC50,second compound 1 µM,< 31.6 nM
same,"viability, T/C",[1],84%
same,"viability, T/C",[2],70%
same,"viability, T/C",[3],50.4%
same,"viability, T/C",[4],26.5%
same,"viability, T/C",[5],13.8%
same,"viability, T/C",[6],9.57%
same,"viability, T/C",[7],64.8%
same,"viability, T/C",[8],69%
same,"viability, T/C",[9],45.6%
same,"viability, T/C",[10],24.4%
same,"viability, T/C",[11],13.4%
same,"viability, T/C",[12],9.59%
same,"viability, T/C",[13],52%
same,"viability, T/C",[14],48.9%
same,"viability, T/C",[15],38.6%
same,"viability, T/C",[16],22.3%
same,"viability, T/C",[17],12.2%
same,"viability, T/C",[18],8.08%
same,"viability, T/C",[19],35.4%
same,"viability, T/C",[20],35.5%
same,"viability, T/C",[21],31.3%
same,"viability, T/C",[22],19.5%
same,"viability, T/C",[23],11.7%
same,"viability, T/C",[24],7.31%
same,"viability, T/C",[25],27.1%
same,"viability, T/C",[26],23.8%
same,"viability, T/C",[27],23.5%
same,"viability, T/C",[28],16.4%
same,"viability, T/C",[29],10.8%
same,"viability, T/C",[30],7.4%
same,"viability, T/C",[31],20.5%
same,"viability, T/C",[32],20%
same,"viability, T/C",[33],19.1%
same,"viability, T/C",[34],13.5%
same,"viability, T/C",[35],9.24%
same,"viability, T/C",[36],7.07%
CCN1CCN(Cc2ccc(Nc3ncc(F)c(-c4cc(F)c5nc(C)n(C(C)C)c5c4)n3)nc2)CC1 + CC(Nc1ccc2c(c1)OCCn1cc(N3C(=O)OCC3C(F)F)nc1-2)C(N)=O,IC50,second compound 0.00316 µM,> 1000 nM
same,IC50,second compound 0.01 µM,> 1000 nM
same,IC50,second compound 0.0316 µM,> 1000 nM
same,IC50,second compound 0.1 µM,< 3.16 nM
same,IC50,second compound 0.316 µM,< 3.16 nM
same,IC50,second compound 1 µM,< 3.16 nM
same,"viability, T/C","second compound 0.00316 µM, first compound 0.00316 µM",87%
same,"viability, T/C","second compound 0.00316 µM, first compound 0.01 µM",95.7%
same,"viability, T/C",[1],108%
same,"viability, T/C",[2],106%
same,"viability, T/C",[3],120%
same,"viability, T/C",[4],122%
same,"viability, T/C","second compound 0.01 µM, first compound 0.00316 µM",82.5%
same,"viability, T/C","second compound 0.01 µM, first compound 0.01 µM",77.5%
same,"viability, T/C",[7],85.9%
same,"viability, T/C",[8],84.9%
same,"viability, T/C",[9],95.7%
same,"viability, T/C",[10],109%
same,"viability, T/C","second compound 0.0316 µM, first compound 0.00316 µM",58%
same,"viability, T/C","second compound 0.0316 µM, first compound 0.01 µM",57.3%
same,"viability, T/C",[13],63.9%
same,"viability, T/C",[14],64.5%
same,"viability, T/C",[15],80.8%
same,"viability, T/C",[16],80.1%
same,"viability, T/C","second compound 0.1 µM, first compound 0.00316 µM",40%
same,"viability, T/C","second compound 0.1 µM, first compound 0.01 µM",38.3%
same,"viability, T/C",[19],47.2%
same,"viability, T/C",[20],48.2%
same,"viability, T/C",[21],63%
same,"viability, T/C",[22],70.2%
same,"viability, T/C","second compound 0.316 µM, first compound 0.00316 µM",27.6%
same,"viability, T/C","second compound 0.316 µM, first compound 0.01 µM",24.9%
same,"viability, T/C",[25],33.1%
same,"viability, T/C",[26],39.4%
same,"viability, T/C",[27],46.4%
same,"viability, T/C",[28],55.6%
same,"viability, T/C","second compound 1 µM, first compound 0.00316 µM",23.1%
same,"viability, T/C","second compound 1 µM, first compound 0.01 µM",20.7%
same,"viability, T/C",[31],26.6%
same,"viability, T/C",[32],28.5%
same,"viability, T/C",[33],36.4%
same,"viability, T/C",[34],50.1%
Cn1ncc(Cl)c1-c1cc(C(=O)NC(CN)Cc2cccc(F)c2)sc1Cl (stereo unspecified) + CC(Nc1ccc2c(c1)OCCn1cc(N3C(=O)OCC3C(F)F)nc1-2)C(N)=O,IC50,second compound 0.00316 µM,149 nM
same,IC50,second compound 0.01 µM,134 nM
same,IC50,second compound 0.0316 µM,54.2 nM
same,IC50,second compound 0.1 µM,< 31.6 nM
same,IC50,second compound 0.316 µM,< 31.6 nM
same,IC50,second compound 1 µM,< 31.6 nM
same,"viability, T/C",[1],70%
same,"viability, T/C",[2],59.1%
same,"viability, T/C",[3],34.8%
same,"viability, T/C",[4],21.2%
same,"viability, T/C",[5],12.9%
same,"viability, T/C",[6],4.9%
same,"viability, T/C",[7],64.1%
same,"viability, T/C",[8],58.1%
same,"viability, T/C",[9],31.4%
same,"viability, T/C",[10],17.3%
same,"viability, T/C",[11],12.5%
same,"viability, T/C",[12],4.16%
same,"viability, T/C",[13],53.6%
same,"viability, T/C",[14],46.4%
same,"viability, T/C",[15],29.3%
same,"viability, T/C",[16],15.6%
same,"viability, T/C",[17],11.4%
same,"viability, T/C",[18],4.17%
same,"viability, T/C",[19],40.4%
same,"viability, T/C",[20],33.5%
same,"viability, T/C",[21],24.6%
same,"viability, T/C",[22],15.1%
same,"viability, T/C",[23],10.2%
same,"viability, T/C",[24],4.94%
same,"viability, T/C",[25],27.2%
same,"viability, T/C",[26],26.3%
same,"viability, T/C",[27],18.1%
same,"viability, T/C",[28],14.6%
same,"viability, T/C",[29],9.75%
same,"viability, T/C",[30],4.08%
same,"viability, T/C",[31],20.2%
same,"viability, T/C",[32],18.1%
same,"viability, T/C",[33],16.4%
same,"viability, T/C",[34],12.9%
same,"viability, T/C",[35],8.94%
same,"viability, T/C",[36],3.85%
